Test: xn = mol fraction of the nth substance listed, in the solute-free solvent

CN1CCN(C2=Nc3cc(Cl)ccc3Nc3ccccc32)CC1 + ClC(Cl)Cl + Cc1ccccc1
solubility (g/100 g solution)
Settings | x2 = 0.07983 | x2 = 0.1632 | x2 = 0.2513 | x2 = 0.3428 | x2 = 0.4382 | x2 = 0.5396 | x2 = 0.6452 | x2 = 0.7576 | x2 = 0.8755
293.15 K | 2.67 | 2.81 | 3.33 | 3.96 | 4.41 | 5.51 | 6.99 | 8.93 | 11.8
298.15 K | 3.12 | 3.3 | 3.67 | 4.31 | 4.65 | 6.29 | 7.75 | 10.1 | 12.8
303.15 K | 3.39 | 3.85 | 4.08 | 4.65 | 5.25 | 6.98 | 8.51 | 10.9 | 13.3
308.15 K | 3.94 | 4.46 | 4.87 | 5.59 | 6.7 | 7.99 | 9.81 | 12.6 | 14.4
313.15 K | 4.95 | 5.37 | 6 | 6.97 | 7.69 | 9.1 | 11.1 | 13.9 | 16.5
318.15 K | 5.94 | 6.56 | 6.71 | 8.12 | 9.11 | 10.3 | 12.3 | 16.2 | 19.1
323.15 K | 6.09 | 7.9 | 9.16 | 10 | 10.9 | 12.6 | 15.7 | 19.2 | 22.4

CN1CCN(C2=Nc3cc(Cl)ccc3Nc3ccccc32)CC1 + ClCCCl + Cc1ccccc1
solubility (g/100 g solution)
Settings | x2 = 0.09454 | x2 = 0.1907 | x2 = 0.2875 | x2 = 0.3851 | x2 = 0.4844 | x2 = 0.5848 | x2 = 0.6866 | x2 = 0.79 | x2 = 0.8945
293.15 K | 2.42 | 2.81 | 3.04 | 3.48 | 3.87 | 4.26 | 4.74 | 5.15 | 5.47
298.15 K | 2.8 | 3.04 | 3.49 | 3.86 | 4.38 | 4.96 | 5.44 | 5.92 | 6.3
303.15 K | 3.12 | 3.63 | 3.88 | 4.47 | 5.03 | 5.87 | 6.44 | 6.95 | 7.31
308.15 K | 3.94 | 4.47 | 4.94 | 5.58 | 6.12 | 6.82 | 7.42 | 8.2 | 8.68
313.15 K | 4.7 | 5.37 | 5.95 | 6.67 | 7.33 | 8.06 | 8.85 | 9.38 | 9.62
318.15 K | 5.75 | 6.09 | 6.93 | 7.46 | 8.32 | 9.3 | 9.75 | 10.8 | 11.5
323.15 K | 7.24 | 7.72 | 8.87 | 9.82 | 10.7 | 11.6 | 12.3 | 13.2 | 13.6

CCC(C)n1ncn(-c2ccc(N3CCN(c4ccc(OCC5COC(Cn6cncn6)(c6ccc(Cl)cc6Cl)O5)cc4)CC3)cc2)c1=O (stereo unspecified) + ClCCl + CCCCO
solubility (g/100 g solution)
Settings | x2 = 0.08928 | x2 = 0.1807 | x2 = 0.2744 | x2 = 0.3704 | x2 = 0.4687 | x2 = 0.5696 | x2 = 0.6731 | x2 = 0.7792 | x2 = 0.8882
288.15 K | 0.0509 | 0.143 | 0.594 | 1.83 | 4.18 | 9.32 | 14.8 | 19.8 | 22
293.15 K | 0.0634 | 0.189 | 0.775 | 2.27 | 5.04 | 10.4 | 16 | 20.9 | 23.1
298.15 K | 0.078 | 0.249 | 1 | 2.81 | 5.97 | 11.6 | 17 | 22.1 | 24.2
303.15 K | 0.0948 | 0.323 | 1.28 | 3.4 | 7.13 | 12.8 | 18.2 | 23.1 | 25.3
308.15 K | 0.115 | 0.412 | 1.64 | 4.11 | 8.37 | 14 | 19.3 | 24.2 | 26.4

CCC(C)n1ncn(-c2ccc(N3CCN(c4ccc(OCC5COC(Cn6cncn6)(c6ccc(Cl)cc6Cl)O5)cc4)CC3)cc2)c1=O (stereo unspecified) + ClCCl + CCCO
solubility (g/100 g solution)
Settings | x2 = 0.07363 | x2 = 0.1517 | x2 = 0.2346 | x2 = 0.3229 | x2 = 0.417 | x2 = 0.5176 | x2 = 0.6254 | x2 = 0.741 | x2 = 0.8656
288.15 K | 0.0545 | 0.15 | 0.459 | 1.65 | 3.95 | 8.85 | 14.4 | 19.5 | 21.8
293.15 K | 0.0662 | 0.199 | 0.602 | 2.05 | 4.66 | 9.92 | 15.7 | 20.8 | 22.9
298.15 K | 0.0798 | 0.258 | 0.786 | 2.52 | 5.51 | 11.1 | 17 | 22 | 24
303.15 K | 0.0965 | 0.332 | 0.996 | 3.08 | 6.4 | 12.3 | 18.3 | 23.3 | 25.1
308.15 K | 0.115 | 0.424 | 1.27 | 3.71 | 7.42 | 13.6 | 19.7 | 24.6 | 26.2

CCC(C)n1ncn(-c2ccc(N3CCN(c4ccc(OCC5COC(Cn6cncn6)(c6ccc(Cl)cc6Cl)O5)cc4)CC3)cc2)c1=O (stereo unspecified) + ClCCl + CCO
solubility (g/100 g solution)
Settings | x2 = 0.05744 | x2 = 0.1206 | x2 = 0.1903 | x2 = 0.2677 | x2 = 0.3542 | x2 = 0.4513 | x2 = 0.5613 | x2 = 0.6869 | x2 = 0.8315
288.15 K | 0.0488 | 0.124 | 0.37 | 1.04 | 2.95 | 7.26 | 15.2 | 21.3 | 25.9
293.15 K | 0.0616 | 0.163 | 0.436 | 1.35 | 3.51 | 8.44 | 16.3 | 22.6 | 27
298.15 K | 0.0776 | 0.215 | 0.511 | 1.72 | 4.09 | 9.83 | 17.6 | 24 | 28.2
303.15 K | 0.0979 | 0.279 | 0.598 | 2.16 | 4.81 | 11.3 | 18.8 | 25.4 | 29.3
308.15 K | 0.122 | 0.362 | 0.694 | 2.7 | 5.58 | 13 | 20.1 | 26.7 | 30.5
